Reference: patent US10851065B2 (Eisai R&D Management Co., Ltd., priority 2015, dated 2020)

Key:
[1] = test system: MCF7-WT cells (MCF7 ER-alpha wildtype); assay: In vitro proliferation (viability) assay, CellTiter-Glo, MCF7-WT cells; assay type: cell-based; conditions: Homo sapiens; MCF7-WT cells, 6 days, CTG vs day 0; mean ± SD-type spread (n); read-out: GI50 WT
Protocol: (§1) MCF7 BUS cells (Coser, et al., (2003) PNAS 100(24): 13994-13999) were maintained in Dulbecco's Modified Eagle Medium supplemented with 10% FBS, 4 mM L-glutamine and 1× non-essential amino acids. Lenti-X 293T cells (Clontech, Cat #632180) were routinely cultured in Dulbecco's Modified Eagle Medium supplemented with 10% FBS.
(§2) The QuikChange II XL Site-Directed Mutagenesis Kit (Agilent Technologies, Cat #200523) was used to generate Y537S, Y537C, Y537N and D538G mutations within the ERα exon 8. Wild-type ESR1 cDNA (GeneCopoeia Inc., Cat #GC-A0322, accession no. NM 000125) was used as a template with the following mutagenesis primers (where the underlined nucleotides represent site mutations); Y537S: F-AAGAACGTGGTGCCCCTCTCTGACCTGCTGCTGGAGATG (SEQ ID NO: 1), R-CATCTCCAGCAGCAGGTCAGAGAGGGGCACCACGTTCTT (SEQ ID NO: 2); Y537N: F-AAGAACGTGGTGCCCCTCAATGACCTGCTGCTGGAGATG (SEQ ID NO: 3), R-CATCTCCAGCAGCAGGTCATTGAGGGGCACCACGTTCTT (SEQ ID NO: 4); Y537C: F-AAGAACGTGGTGCCCCTCTGTGACCTGCTGCTGGAGATG (SEQ ID NO: 5), R-CATCTCCAGCAGCAGGTCACAGAGGGGCACCACGTTCTT (SEQ ID NO: 6); D538G: F-AACGTGGTGCCCCTCTATGGCCTGCTGCTGGAGATGCTG (SEQ ID NO: 7), R-CAGCATCTCCAGCAGCAGGCCATAGAGGGGCACCACGTT (SEQ ID NO: 8). WT and mutant ESR1 cDNAs were cloned into the designation lentiviral vector pLenti6.3/V5-Dest (Invitrogen, Cat #V533-06). To make lentivirus, DNAs (WT and mutant ESR1) were co-transfected with packaging plasmids into Lenti-X 293T cells using TransIT (Mirus, Cat #MIR 2700). 48 h post-transfection, virus containing media was filtered and added to MCF7 cells in the presence of 8 µg/ml polybrene overnight. Two days following infection, cells were placed under selection with 10 μg/ml blasticidin for 2 weeks for stable expression.
(§3) MCF7-WT and -Y537S cells were seeded at 1500 cells/well in black-walled 96-well plates (assay plates, Costar, Cat #3904). In parallel, cells were also seeded in a separate 96-well plate (8 wells/cell line, control plate) for which a CTG (CellTiter-Glo® Luminescent Viability Assay, Promega, Cat #G7572) was measured the following day (day 0 reading). The day 0 reading was used for the GI50 calculation at the termination of the experiment. The day following seeding, compounds were added to assay plates. Briefly, a 1:4 serial dilution was prepared in DMSO at 200× final concentration for a total of 10 concentrations (9 dilutions containing compound and one is DMSO only). Serially diluted compounds were pipetted into medium to prepare a compound-medium mix at 10× final concentration. 10 μl of compound-medium mix was added to MCF7-WT and -Y537S cells at 3 wells/concentration (triplicate for each concentration). On day 3, media/compound was removed and replaced with fresh media/compound as described above. On day 6, CTG was measured and compared to day 0 readings from control plate to assess GI50.

[2] = test system: MCF7-Y537S cells (MCF7 ER-alpha Y537S mutant); assay: In vitro proliferation (viability) assay, CellTiter-Glo, MCF7-Y537S cells; assay type: cell-based; conditions: Homo sapiens; MCF7-Y537S cells, 6 days, CTG vs day 0; mean ± SD-type spread (n); read-out: GI50 MUT (Y537S)
Protocol: as §1, §2, §3

Structure (SMILES)	GI50 [1] [nM]	GI50 [2] [nM]
CC/C(=C(/c1ccc(OCCNC(C)/C=C/C(=O)N(C)C)cc1)c1ccc2[nH]ncc2c1)c1ccccc1 (stereo not drawn) [Compound 89, (E)-4-((2-(4-((E)-1-(1H-indazol-5-yl)-2-phenylbut-1-en-1-yl)phenoxy)ethyl)amino)-N,N-dimethylpent-2-enamide]	2.8	35
CC/C(=C(/c1ccc(OCCNC/C=C/C(=O)N(C)C)cc1)c1ccc2[nH]nc(F)c2c1)c1c(F)cccc1F [Compound 50, (E)-4-((2-(4-((E)-2-(2,6-difluorophenyl)-1-(3-fluoro-1H-indazol-5-yl)but-1-en-1-yl)phenoxy)ethyl)amino)-N,N-dimethylbut-2-enamide]	2.46	67.5
CC/C(=C(/c1ccc(OCCNC/C=C/C(=O)N(C)CCO)cc1)c1ccc2[nH]nc(F)c2c1)c1ccc(F)cc1Cl [Compound 28, (E)-4-((2-(4-((E)-2-(2-chloro-4-fluorophenyl)-1-(3-fluoro-1H-indazol-5-yl)but-1-en-1-yl)phenoxy)ethyl)amino)-N-(2-hydroxyethyl)-N-methylbut-2-enamide]	3.16	69.7
CN(C)C(=O)/C=C/CNCCOc1ccc(/C(=C(/CC(F)(F)F)c2ccncc2F)c2ccc3[nH]nc(F)c3c2)cc1 [Compound 61, (E)-N,N-dimethyl-4-((2-(4-((E)-4,4,4-trifluoro-1-(3-fluoro-1H-indazol-5-yl)-2-(3-fluoropyridin-4-yl)but-1-en-1-yl)phenoxy)ethyl)amino)but-2-enamide]	0.3 ± 0.1	4 ± 1.5
CC/C(=C(/c1ccc(OCCCNC/C=C/C(=O)N(C)C)cc1)c1ccc2[nH]ncc2c1)c1ccccc1 [Compound 95, (E)-4-((3-(4-((E)-1-(1H-indazol-5-yl)-2-phenylbut-1-en-1-yl)phenoxy)propyl)amino)-N,N-dimethylbut-2-enamide]	1.8	32.4
CC/C(=C(/c1ccc(OC(C)C(C)NC/C=C/C(=O)N(C)C)cc1)c1ccc2[nH]ncc2c1)c1ccccc1 (stereo not drawn) [Compound 96, (E)-4-((3-(4-((E)-1-(1H-indazol-5-yl)-2-phenylbut-1-en-1-yl)phenoxy)butan-2-yl)amino)-N,N-dimethylbut-2-enamide]	2	27.2
CN(C)C(=O)/C=C/CNCCOc1ccc(/C(=C(/CC(F)(F)F)c2ccc(F)cc2Cl)c2ccc3[nH]nc(F)c3c2)cn1 [Compound 59, (E)-4-((2-((5-((Z)-2-(2-chloro-4-fluorophenyl)-4,4,4-trifluoro-1-(3-fluoro-1H-indazol-5-yl)but-1-en-1-yl)pyridin-2-yl)oxy)ethyl)amino)-N,N-dimethylbut-2-enamide]	0.33 ± 0.18	15.2 ± 3.7
CC/C(=C(/c1ccc(OCCNC/C=C/C(=O)N(C)CC)cc1)c1ccc2[nH]ncc2c1)c1ccccc1 [Compound 16, (E)-4-((2-(4-((E)-1-(1H-indazol-5-yl)-2-phenylbut-1-en-1-yl)phenoxy)ethyl)amino)-N-ethyl-N-methylbut-2-enamide]	1.66	21.9
CC/C(=C(/c1ccc(OCCNC/C=C/C(=O)N2CCCCC2)cc1)c1ccc2[nH]ncc2c1)c1ccccc1 [Compound 12, (E)-4-((2-(4-((E)-1-(1H-indazol-5-yl)-2-phenylbut-1-en-1-yl)phenoxy)ethyl)amino)-1-(piperidin-1-yl)but-2-en-1-one]	1.69	36.7
CC/C(=C(/c1ccc(OCCNC/C=C/C(=O)N(C)C)cc1)c1ccc2[nH]nc(F)c2c1)c1ccncc1F [Compound 81, (E)-4-((2-(4-((E)-1-(3-fluoro-1H-indazol-5-yl)-2-(3-fluoropyridin-4-yl)but-1-en-1-yl)phenoxy)ethyl)amino)-N,N-dimethylbut-2-enamide]	0.3	13
CC/C(=C(/c1ccc(OCCNC/C=C/C(=O)N(C)C)cc1)c1ccc2[nH]nc(F)c2c1)c1ccc(F)cc1F [Compound 65, (E)-4-((2-(4-((E)-2-(2,4-difluorophenyl)-1-(3-fluoro-1H-indazol-5-yl)but-1-en-1-yl)phenoxy)ethyl)amino)-N,N-dimethylbut-2-enamide]	4	66
CC/C(=C(/c1ccc(OCCNC/C=C(\C)C(=O)N(C)C)cc1)c1ccc2[nH]nc(F)c2c1)c1ccc(F)cc1Cl [Compound 86]	1.73 ± 1	29.4 ± 4.7
CC/C(=C(/c1ccc(OCCNC/C=C/C(=O)N(C)C)cc1)c1ccc2[nH]ncc2c1)c1ccccc1C [Compound 36, (E)-4-((2-(4-((E)-1-(1H-indazol-5-yl)-2-(o-tolyl)but-1-en-1-yl)phenoxy)ethyl)amino)-N,N-dimethylbut-2-enamide]	4.96 ± 3.1	25 ± 21.9
O=C(/C=C/CNCCOc1ccc(/C(=C(\c2ccccc2)C2CCC2)c2ccc3[nH]ncc3c2)cc1)N1CCOCC1 [Compound 23, (E)-4-((2-(4-((E)-2-cyclobutyl-1-(1H-indazol-5-yl)-2-phenylvinyl)phenoxy)ethyl)amino)-1-morpholinobut-2-en-1-one]	1.52 ± 1.05	24.2 ± 6.57
CC/C(=C(/c1ccc(OCCNC/C=C/C(=O)N(C)C)cc1)c1ccc2[nH]ncc2c1)c1ccccc1CC [Compound 35, (E)-4-((2-(4-((E)-2-(2-ethylphenyl)-1-(1H-indazol-5-yl)but-1-en-1-yl)phenoxy)ethyl)amino)-N,N-dimethylbut-2-enamide]	6.22 ± 0.58	47.8 ± 15.6
CC/C(=C(/c1ccc(OCCNCC/C=C/C(=O)N(C)C)cc1)c1ccc2[nH]nc(F)c2c1)c1ccc(F)cc1Cl [Compound 85]	1.56 ± 0.56	28.4 ± 2.9
CC/C(=C(/c1ccc(OCCNC/C=C/C(=O)N2CCCC2)cc1)c1ccc2[nH]ncc2c1)c1ccccc1 [Compound 11, (E)-4-((2-(4-((E)-1-(1H-indazol-5-yl)-2-phenylbut-1-en-1-yl)phenoxy)ethyl)amino)-1-(pyrrolidin-1-yl)but-2-en-1-one]	0.76	14
CC/C(=C(/c1ccc(OCCNC/C=C/C(=O)N(C)CCO)cc1)c1ccc2[nH]ncc2c1)c1ccccc1 [Compound 18, (E)-4-((2-(4-((E)-1-(1H-indazol-5-yl)-2-phenylbut-1-en-1-yl)phenoxy)ethyl)amino)-N-(2-hydroxyethyl)-N-methylbut-2-enamide]	1.63 ± 1.41	21.4 ± 15
CN(C)C(=O)/C=C/CNCCOc1ccc(/C(=C(/CCF)c2ccccc2)c2ccc3[nH]nc(F)c3c2)cc1 [Compound 84]	2.15 ± 0.15	34.9 ± 1.5
CC/C(=C(/c1ccc(OCCNC/C=C/C(=O)N(C)C)cc1)c1ccc2[nH]ncc2c1)c1cc(F)cc(F)c1 [Compound 5, (E)-4-((2-(4-((E)-2-(3,5-difluorophenyl)-1-(1H-indazol-5-yl)but-1-en-1-yl)phenoxy)ethyl)amino)-N,N-dimethylbut-2-enamide]	8.44 ± 3.87	81.4 ± 45.8
CN(CCO)C(=O)/C=C/CNCCOc1ccc(/C(=C(\c2ccccc2)C2CCC2)c2ccc3[nH]nc(F)c3c2)cc1 [Compound 53, (E)-4-((2-(4-((E)-2-cyclobutyl-1-(3-fluoro-1H-indazol-5-yl)-2-phenylvinyl)phenoxy)ethyl)amino)-N-(2-hydroxyethyl)-N-methylbut-2-enamide]	3.59	76.5
